Source: patent publication US8192962B2, “Processes for detecting toxic substances” (Daikin Industries, Ltd., priority 2001, dated 2012)

Tested on: Metabolism protein genes
Assay: DNA chip mRNA expression in yeast, metabolism protein genes (Table 7)
Format: cell-based, Saccharomyces cerevisiae S288C
Procedure: Yeast (Saccharomyces cerevisiae S288C (α SUC2mal mel gap2 CUP1)) were incubated at 25° C. on YPD medium (yeast extract 1%, polypepton 2%, glucose 2%). One of toxic chemical substances was added to the cells at logarithmic growth phase, and the cells were further incubated for two hours. Cells were cultured without any chemical substance in the same condition, and were used as control. Concentrations of the chemical substances were defined to inhibit the growth of the yeast but not lead to death.
After completion of the incubation, the culture was centrifuged to collect the cells. To the cells, sodium acetate buffer (50 mM sodium acetate, 10 mM EDTA, 1% SDS) was added, and the mixture was shaken at 65° C. for five minutes, followed by returning to room temperature, and obtaining the supernatant, of which the procedures were repeated two times. To the supernatant, ½ amount of a solution of phenol/chloroform was added, and the mixture was centrifuged to give a supernatant, which was added with an equal amount of chloroform, and the mixture was centrifuged to give a supernatant. To the supernatant, an equal amount of isopropanol containing 0.3 M sodium acetate was added, and the mixture was allowed to stand at room temperature for 30 minutes, after which the mixture was centrifuged to give a sediment of the whole RNAs. Seventy % ethanol was added to the sediment, and the mixture was again centrifuged to give a sediment, which was then dried and dissolved in water. mRNA was isolated from the whole RNAs as followings. In view of the fact that a poly A chain is attached to the 3′ terminus of mRNA, a polynucleotide having a poly T structure which was immobilized on the surface of latex beads was used to trap the mRNA, and then the mRNA was washed and eluted with spine column (Oligotex-dT30<Super>mRNA Purification Kit, Takara). Reverse transcription of the mRNA was conducted with a reverse transcriptase (Super Script II Reverse Transcriptase; catalogue No. 18064-014, GibcoBRL) using fluorescence-labeled nucleotides to give cDNAs that were introduced with Cy3-dUTP or Cy5-dUTP during the reverse transcription.
The labeled cDNAs were dissolved in TE buffer (10mM Tris-HCl/1 mM EDTA, pH8.0), and the solution was dropped on the DNA chip containing the whole genes of yeast (DNA Chip Research Inc. Japan) so that the cDNAs were hybridized on the DNA chip at 65° C. for over 12 hours. The fluoresces intensity of the DNA chip was read with a scanner, and the ratio relative to the fluorescence intensity resulting from the absence of chemical substance was estimated as the following, which is shown in Tables 1 to 9: […]

SMILES: CCCCCCCCCCCCc1ccc(S(=O)(=O)[O-])cc1.[Na+] [(17), sodium dodecylbenzosulfonate]
- The level of expressed mRNA in the presence of chemical substance/The level of expressed mRNA in the absence of chemical substance (yeast gene YJR155W): 1.3
- The level of expressed mRNA in the presence of chemical substance/The level of expressed mRNA in the absence of chemical substance (yeast gene YKL035W): 1.0
- level of expressed mRNA in the presence/in the absence of chemical substance (yeast gene YKL060C): 1.2
- The level of expressed mRNA in the presence of chemical substance/The level of expressed mRNA in the absence of chemical substance (yeast gene YKL091C): 1.4
- The level of expressed mRNA in the presence of chemical substance/The level of expressed mRNA in the absence of chemical substance (yeast gene YKL104C): 1.0
- level of expressed mRNA in the presence/in the absence of chemical substance (yeast gene YKL148C): 0.8
- The level of expressed mRNA in the presence of chemical substance/The level of expressed mRNA in the absence of chemical substance (yeast gene YKL152C): 1.1
- level of expressed mRNA in the presence/in the absence of chemical substance (yeast gene YKL157W): 1.2
- The level of expressed mRNA in the presence of chemical substance/The level of expressed mRNA in the absence of chemical substance (yeast gene YKL213C): 1.4
- The level of expressed mRNA in the presence of chemical substance/The level of expressed mRNA in the absence of chemical substance (yeast gene YKL215C): 0.8
- level of expressed mRNA in the presence/in the absence of chemical substance (yeast gene YKR034W): 0.8
- The level of expressed mRNA in the presence of chemical substance/The level of expressed mRNA in the absence of chemical substance (yeast gene YLL058W): 1.4
- level of expressed mRNA in the presence/in the absence of chemical substance (yeast gene YLR006C): 1.6
- level of expressed mRNA in the presence/in the absence of chemical substance (yeast gene YLR044C): 0.9
- level of expressed mRNA in the presence/in the absence of chemical substance (yeast gene YLR056W): 1.1
- level of expressed mRNA in the presence/in the absence of chemical substance (yeast gene YLR058C): 0.8
- level of expressed mRNA in the presence/in the absence of chemical substance (yeast gene YLR081W): 0.7
- level of expressed mRNA in the presence/in the absence of chemical substance (yeast gene YLR089C): 1.2
- The level of expressed mRNA in the presence of chemical substance/The level of expressed mRNA in the absence of chemical substance (yeast gene YLR180W): 0.8
- The level of expressed mRNA in the presence of chemical substance/The level of expressed mRNA in the absence of chemical substance (yeast gene YLR273C): 1.0
- level of expressed mRNA in the presence/in the absence of chemical substance (yeast gene YLR284C): 2.9
- The level of expressed mRNA in the presence of chemical substance/The level of expressed mRNA in the absence of chemical substance (yeast gene YLR299W): 1.3
- The level of expressed mRNA in the presence of chemical substance/The level of expressed mRNA in the absence of chemical substance (yeast gene YLR300W): 0.7
- level of expressed mRNA in the presence/in the absence of chemical substance (yeast gene YLR304C): 0.5
- The level of expressed mRNA in the presence of chemical substance/The level of expressed mRNA in the absence of chemical substance (yeast gene YLR307W): 1.1
- The level of expressed mRNA in the presence of chemical substance/The level of expressed mRNA in the absence of chemical substance (yeast gene YLR348C): 1.1
- level of expressed mRNA in the presence/in the absence of chemical substance (yeast gene YLR354C): 1.0
- level of expressed mRNA in the presence/in the absence of chemical substance (yeast gene YLR372W): 0.5
- level of expressed mRNA in the presence/in the absence of chemical substance (yeast gene YML022W): 0.5
- The level of expressed mRNA in the presence of chemical substance/The level of expressed mRNA in the absence of chemical substance (yeast gene YML054C): 1.1
- The level of expressed mRNA in the presence of chemical substance/The level of expressed mRNA in the absence of chemical substance (yeast gene YML070W): 1.2
- The level of expressed mRNA in the presence of chemical substance/The level of expressed mRNA in the absence of chemical substance (yeast gene YML100W): 1.0
- The level of expressed mRNA in the presence of chemical substance/The level of expressed mRNA in the absence of chemical substance (yeast gene YMR008C): 3.0
- level of expressed mRNA in the presence/in the absence of chemical substance (yeast gene YMR011W): 1.3
- level of expressed mRNA in the presence/in the absence of chemical substance (yeast gene YMR015C): 1.0
- The level of expressed mRNA in the presence of chemical substance/The level of expressed mRNA in the absence of chemical substance (yeast gene YMR020W): 2.3
- level of expressed mRNA in the presence/in the absence of chemical substance (yeast gene YMR083W): 0.9
- The level of expressed mRNA in the presence of chemical substance/The level of expressed mRNA in the absence of chemical substance (yeast gene YMR105C): 1.6
- The level of expressed mRNA in the presence of chemical substance/The level of expressed mRNA in the absence of chemical substance (yeast gene YMR189W): 1.0
- level of expressed mRNA in the presence/in the absence of chemical substance (yeast gene YMR205C): 0.6
- level of expressed mRNA in the presence/in the absence of chemical substance (yeast gene YMR261C): 0.7
- The level of expressed mRNA in the presence of chemical substance/The level of expressed mRNA in the absence of chemical substance (yeast gene YMR271C): 1.3
- The level of expressed mRNA in the presence of chemical substance/The level of expressed mRNA in the absence of chemical substance (yeast gene YMR296C): 0.8
- level of expressed mRNA in the presence/in the absence of chemical substance (yeast gene YMR323W): 1.1
- The level of expressed mRNA in the presence of chemical substance/The level of expressed mRNA in the absence of chemical substance (yeast gene YNL012W): 1.3
- level of expressed mRNA in the presence/in the absence of chemical substance (yeast gene YNL025C): 0.7
- The level of expressed mRNA in the presence of chemical substance/The level of expressed mRNA in the absence of chemical substance (yeast gene YNL045W): 1.1
- The level of expressed mRNA in the presence of chemical substance/The level of expressed mRNA in the absence of chemical substance (yeast gene YNL104C): 0.9
- The level of expressed mRNA in the presence of chemical substance/The level of expressed mRNA in the absence of chemical substance (yeast gene YNL106C): 1.1
- The level of expressed mRNA in the presence of chemical substance/The level of expressed mRNA in the absence of chemical substance (yeast gene YNL169C): 1.1
- level of expressed mRNA in the presence/in the absence of chemical substance (yeast gene YNL192W): 2.3
- The level of expressed mRNA in the presence of chemical substance/The level of expressed mRNA in the absence of chemical substance (yeast gene YNL231C): 3.1
- The level of expressed mRNA in the presence of chemical substance/The level of expressed mRNA in the absence of chemical substance (yeast gene YNL322C): 0.9
- The level of expressed mRNA in the presence of chemical substance/The level of expressed mRNA in the absence of chemical substance (yeast gene YNL331C): 1.7
- The level of expressed mRNA in the presence of chemical substance/The level of expressed mRNA in the absence of chemical substance (yeast gene YNL332W): 1.0
- The level of expressed mRNA in the presence of chemical substance/The level of expressed mRNA in the absence of chemical substance (yeast gene YNR019W): 2.4
- The level of expressed mRNA in the presence of chemical substance/The level of expressed mRNA in the absence of chemical substance (yeast gene YNR033W): 0.9
- The level of expressed mRNA in the presence of chemical substance/The level of expressed mRNA in the absence of chemical substance (yeast gene YNR059W): 2.6
- The level of expressed mRNA in the presence of chemical substance/The level of expressed mRNA in the absence of chemical substance (yeast gene YOL058W): 1.2
- level of expressed mRNA in the presence/in the absence of chemical substance (yeast gene YOL086C): 1.1
- level of expressed mRNA in the presence/in the absence of chemical substance (yeast gene YOL108C): 1.5
- level of expressed mRNA in the presence/in the absence of chemical substance (yeast gene YOL116W): 1.1
- The level of expressed mRNA in the presence of chemical substance/The level of expressed mRNA in the absence of chemical substance (yeast gene YOL126C): 1.6
- The level of expressed mRNA in the presence of chemical substance/The level of expressed mRNA in the absence of chemical substance (yeast gene YOL153C): 1.1
- level of expressed mRNA in the presence/in the absence of chemical substance (yeast gene YOL156W): 0.9
- The level of expressed mRNA in the presence of chemical substance/The level of expressed mRNA in the absence of chemical substance (yeast gene YOL165C): 1.6
- level of expressed mRNA in the presence/in the absence of chemical substance (yeast gene YOR002W): 0.9
- level of expressed mRNA in the presence/in the absence of chemical substance (yeast gene YOR085W): 0.9
- The level of expressed mRNA in the presence of chemical substance/The level of expressed mRNA in the absence of chemical substance (yeast gene YOR099W): 1.2
- level of expressed mRNA in the presence/in the absence of chemical substance (yeast gene YOR103C): 1.1
- level of expressed mRNA in the presence/in the absence of chemical substance (yeast gene YOR108W): 1.1
- level of expressed mRNA in the presence/in the absence of chemical substance (yeast gene YOR128C): 1.2
- The level of expressed mRNA in the presence of chemical substance/The level of expressed mRNA in the absence of chemical substance (yeast gene YOR130C): 1.5
- level of expressed mRNA in the presence/in the absence of chemical substance (yeast gene YOR142W): 0.9
- level of expressed mRNA in the presence/in the absence of chemical substance (yeast gene YOR176W): 1.2
- level of expressed mRNA in the presence/in the absence of chemical substance (yeast gene YOR178C): 1.0
- level of expressed mRNA in the presence/in the absence of chemical substance (yeast gene YOR251C): 0.9
- The level of expressed mRNA in the presence of chemical substance/The level of expressed mRNA in the absence of chemical substance (yeast gene YOR336W): 1.0
- The level of expressed mRNA in the presence of chemical substance/The level of expressed mRNA in the absence of chemical substance (yeast gene YOR347C): 1.7
- level of expressed mRNA in the presence/in the absence of chemical substance (yeast gene YOR348C): 0.9
- The level of expressed mRNA in the presence of chemical substance/The level of expressed mRNA in the absence of chemical substance (yeast gene YPL017C): 1.3
- level of expressed mRNA in the presence/in the absence of chemical substance (yeast gene YPL028W): 1.4
- level of expressed mRNA in the presence/in the absence of chemical substance (yeast gene YPL057C): 2.2
- level of expressed mRNA in the presence/in the absence of chemical substance (yeast gene YPL135W): 1.5
- level of expressed mRNA in the presence/in the absence of chemical substance (yeast gene YPL148C): 1.0
- The level of expressed mRNA in the presence of chemical substance/The level of expressed mRNA in the absence of chemical substance (yeast gene YPR026W): 0.9
- level of expressed mRNA in the presence/in the absence of chemical substance (yeast gene YPR113W): 1.2
- level of expressed mRNA in the presence/in the absence of chemical substance (yeast gene YPR165W): 2.3
- The level of expressed mRNA in the presence of chemical substance/The level of expressed mRNA in the absence of chemical substance (yeast gene YPR167C): 1.7
- level of expressed mRNA in the presence/in the absence of chemical substance (yeast gene YPR183W): 1.2
